Experimental findings from US10858335B2 (Rigel Pharmaceuticals, Inc., priority 2014, dated 2020) are described below.

Counter-ions that a name gives are not always drawn.

In one experiment the test system is GDF8 signaling (p-SMAD-3 (Ser423/425)). As to the kind of experiment: AlphaScreen SureFire SMAD3 (p-Ser423/425) assay, GDF8-stimulated cells (GDF pSMAD). Type of experiment: cell-based. To be noted: Mus musculus, MPC-11, GDF8-stimulated pSMAD3, MPC11; tested as the salt form given; read-out: GDF pSMAD (MPC11) (μM), inhibition of GDF8 signaling.
For the compound `COc1cnc(-c2cc(Cl)ccc2F)c(-c2ccc3ncnc(N)c3c2)c1` [compound 993, 6-(2-(5-chloro-2-fluorophenyl)-5-methoxypyridin-3-yl)quinazolin-4-amine], the IC50 was 0.486 µM. As for `COc1cc(-c2ncccc2-c2ccc3ncnc(N)c3c2)c(Cl)cc1F` [compound 1008, 6-(2-(2-chloro-4-fluoro-5-methoxyphenyl)pyridin-3-yl)quinazolin-4-amine], the IC50 was 5.81 µM. The same measure, in the same setting: the value for `Nc1ncnc2ccc(-c3cccnc3-c3ccccc3F)cc12` [compound 1003, 6-(2-(2-fluorophenyl)pyridin-3-yl)quinazolin-4-amine] was 7.27 µM; that for `Nc1ncnc2ccc(-c3cccnc3-c3cc(C(F)F)ccc3Cl)cc12` [compound 1018, 6-(2-(2-chloro-5-(difluoromethyl)phenyl)pyridin-3-yl)quinazolin-4-amine] was 0.735 µM; that for `Nc1ncnc2ccc(-c3cccnc3-c3cc(O)ccc3Cl)cc12` [compound 1016, 3-(3-(4-aminoquinazolin-6-yl)pyridin-2-yl)-4-chlorophenol] was 2.77 µM.

Still in this experiment, the particulars now being: Mus musculus, MPC-11, MPC11; GDF8-stimulated; p-SMAD3 AlphaScreen; read-out: GDF pSMAD (MPC11) (inhibition of GDF8 signaling).
Regarding `Cc1ccc(F)c(-c2ncccc2-c2ccc3ncsc3c2)c1` [compound 667, 6-(2-(2-Fluoro-5-methylphenyl)pyridin-3-yl)benzo[d]thiazole], the IC50 turned out to be 0.226 µM. Turning to `COc1cc(NC(=O)c2cnc3ccc(-c4cccnc4-c4cccc(C5CC5)c4)cn23)cc(OC)c1OC` [compound 575, 6-(2-(3-Cyclopropylphenyl)pyridin-3-yl)-N-(3,4,5-trimethoxyphenyl)imidazo[1,2-a]pyridine-3-carboxamide], the IC50 was 1.17 µM.

Consider `Cc1cc(-c2ncccc2-c2ccn3ncc(C#N)c3n2)ccc1F` [compound 901, 5-(2-(4-Fluoro-3-methylphenyl)pyridin-3-yl)pyrazolo[1,5-a]pyrimidine-3-carbonitrile], for which the IC50 worked out at 1.06 µM. `Cc1cccc(-c2ncccc2-c2ccc3ncn(C)c(=O)c3c2)c1` [compound 341, 3-Methyl-6-(2-(m-tolyl)pyridin-3-yl)quinazolin-4(3H)-one]: the IC50 was found to be 0.26 µM. `Nc1ncnc2ccc(-c3cccnc3-c3cc(F)ccc3Cl)cc12` [compound 504, 6-(2-(2-Chloro-5-fluorophenyl)pyridin-3-yl)quinazolin-4-amine]: the IC50 is 4.96 µM. As to `Cc1cc(-c2ncccc2-c2ccc3cnc(C(=O)O)n3c2)ccc1F` [compound 257, 6-(2-(4-Fluoro-3-methylphenyl)pyridin-3-yl)imidazo[1,5-a]pyridine-3-carboxylic acid], the IC50 was determined as 1.84 µM.

As for `COc1ccnc2ccc(-c3cccnc3-c3cc(Cl)ccc3F)cc12` [compound 840, 6-(2-(5-Chloro-2-fluorophenyl)pyridin-3-yl)-4-methoxyquinoline], the IC50 turned out to be 8.14 µM.

In the case of `Cc1cc(-c2ncc(NCc3cncs3)cc2-c2ccc3ncsc3c2)ccc1F` [compound 327, 5-(Benzo[d]thiazol-6-yl)-6-(4-fluoro-3-methylphenyl)-N-(thiazol-5-ylmethyl)pyridin-3-amine], the IC50 is 0.323 µM. The same measure, in the same setting: the value for `Fc1ccc(-c2ncccc2-c2ccc3ncsc3c2)cc1Cl` [compound 686, 6-(2-(3-Chloro-4-fluorophenyl)pyridin-3-yl)benzo[d]thiazole] was 0.205 µM; that for `Cc1cc(-c2ncc(NCc3ccc(O)c(OC(F)(F)F)c3)cc2-c2ccc3ncsc3c2)ccc1F` [compound 371, 4-(((5-(Benzo[d]thiazol-6-yl)-6-(4-fluoro-3-methylphenyl)pyridin-3-yl)amino)methyl)-2-(trifluoromethoxy)phenol] was 0.737 µM; that for `N#Cc1cc(-c2ncccc2-c2ccc3ncc(C#N)n3c2)ccc1F` [compound 628, 6-(2-(3-Cyano-4-fluorophenyl)pyridin-3-yl)imidazo[1,2-a]pyridine-3-carbonitrile] was 1.71 µM.

On to `Cc1cc(-c2ncccc2-c2ccc3ncc(C(=O)N[C@@H]4CN5CCC4CC5)n3c2)ccc1F` [compound 790, (S)-6-(2-(4-Fluoro-3-methylphenyl)pyridin-3-yl)-N-(quinuclidin-3-yl)imidazo[1,2-a]pyridine-3-carboxamide], for which the IC50 amounted to 4.99 µM. As for `Cc1cc(-c2ncccc2-c2ccc3[nH]ncc3c2)ccc1N` [Compound 90, 4-(3-(1H-Indazol-5-yl)pyridin-2-yl)-2-methylbenzenamine], the IC50 came out at 2.61 µM. `Cn1ccc(-c2cnc3ccc(-c4cccnc4-c4ccc(F)c(Cl)c4)cn23)n1` [compound 853, 6-(2-(3-Chloro-4-fluorophenyl)pyridin-3-yl)-3-(1-methyl-1H-pyrazol-3-yl)imidazo[1,2-a]pyridine]: the IC50 was found to be 0.881 µM. Same read-out and setting: the figure for `Fc1ccc(-c2ncccc2-c2ccc3ncc(-c4ncc[nH]4)n3c2)cc1Cl` [compound 845, 6-(2-(3-Chloro-4-fluorophenyl)pyridin-3-yl)-3-(1H-imidazol-2-yl)imidazo[1,2-a]pyridine] is 0.0588 µM.

In the case of `CCn1cnc2ccc(-c3cccnc3-c3cccc(C)c3)cc21` [Compound 43, 1-Ethyl-6-(2-m-tolylpyridin-3-yl)-1H-benzo[d]imidazole], the IC50 turned out to be 1.62 µM. With `Nc1ncnc2ccc(-c3cccnc3-c3cc(O)cc(Cl)c3)cc12` [compound 493, 3-(3-(4-Aminoquinazolin-6-yl)pyridin-2-yl)-5-chlorophenol], the IC50 is 0.938 µM.

`N#Cc1cc(-c2ncccc2-c2ccc3ncnc(N)c3c2)ccc1F` [compound 477, 5-(3-(4-Aminoquinazolin-6-yl)pyridin-2-yl)-2-fluorobenzonitrile]: the IC50 was 0.492 µM. As to `Cc1cc(-c2ncccc2-c2ccc3ncc(=O)n(C)c3c2)ccc1F` [compound 888, 7-(2-(4-Fluoro-3-methylphenyl)pyridin-3-yl)-1-methylquinoxalin-2(1H)-one], the IC50 is 4.05 µM. With `Nc1ncnc2ccc(-c3cccnc3-c3cccc(Cl)c3Cl)cc12` [compound 498, 6-(2-(2,3-Dichlorophenyl)pyridin-3-yl)quinazolin-4-amine], the IC50 was 1.2 µM. For the compound `Cc1cc(-c2ncc(NC3CCN(C)CC3)cc2-c2ccc3ncsc3c2)ccc1F` [compound 247, 5-(Benzo[d]thiazol-6-yl)-6-(4-fluoro-3-methylphenyl)-N-(1-methylpiperidin-4-yl)pyridin-3-amine], the IC50 worked out at 3.2 µM.

Take `Nc1nccc2ccc(-c3cccnc3-c3ccc(F)c(Cl)c3)cc12` [compound 297, 7-(2-(3-Chloro-4-fluorophenyl)pyridin-3-yl)isoquinolin-1-amine]: the IC50 was 2.26 µM. For `Cc1cccc(-c2ncccc2-c2ccc3ncn(CCN4CCOCC4)c3c2)c1` [Compound 36, 1-(2-Morpholinoethyl)-6-(2-m-tolylpyridin-3-yl)-1H-benzo[d]imidazole], the IC50 is 19.7 µM. Regarding `Cc1cc(-c2ncccc2-c2ccn3c(C(=O)NCCN(C)C)ncc3c2)ccc1F` [compound 268, N-(2-(Dimethylamino)ethyl)-7-(2-(4-fluoro-3-methylphenyl)pyridin-3-yl)imidazo[1,5-a]pyridine-3-carboxamide], the IC50 was found to be 14.4 µM. As to `Fc1c(Cl)cccc1-c1ncccc1-c1ccc2ncnn2c1` [compound 772, 6-(2-(3-Chloro-2-fluorophenyl)pyridin-3-yl)-[1,2,4]triazolo[1,5-a]pyridine], the IC50 amounted to 4.95 µM. Regarding `Clc1ccc(Cl)c(-c2ncccc2-c2ccn3nccc3n2)c1` [compound 920, 5-(2-(2,5-Dichlorophenyl)pyridin-3-yl)pyrazolo[1,5-a]pyrimidine], the IC50 was 0.272 µM. The same measure, in the same setting: the value for `Nc1ncnc2ccc(-c3cccnc3-c3ccc4c(c3)CCC4)cc12` [compound 470, 6-(2-(2,3-Dihydro-1H-inden-5-yl)pyridin-3-yl)quinazolin-4-amine] was 21.1 µM; that for `Cc1cc(-c2ncccc2-c2ccc3c(cnn3C(=O)OC[C@H](N)Cc3c[nH]c4ccccc34)c2)ccc1F` [compound 629, (R)-2-Amino-3-(1H-indol-3-yl)propyl 5-(2-(4-fluoro-3-methylphenyl)pyridin-3-yl)-1H-indazole-1-carboxylate TFA salt] was 0.132 µM. Consider `Fc1cc(F)c(-c2ncccc2-c2ccn3nccc3n2)cc1Cl` [compound 918, 5-(2-(5-Chloro-2,4-difluorophenyl)pyridin-3-yl)pyrazolo[1,5-a]pyrimidine], for which the IC50 stood at 0.206 µM. As to `FC(F)(F)c1cnc2ccc(-c3cccnc3-c3cccc(C4CC4)c3)cn12` [compound 556, 6-(2-(3-Cyclopropylphenyl)pyridin-3-yl)-3-(trifluoromethyl)imidazo[1,2-a]pyridine], the IC50 was determined as 0.363 µM.

For `Fc1ccc(-c2ncccc2-c2ccc3[nH]ncc3c2)cc1C(F)(F)F` [Compound 93, 5-(2-(4-Fluoro-3-(trifluoromethyl)phenyl)pyridin-3-yl)-1H-indazole], the IC50 turned out to be 4.83 µM. Regarding `Cc1cc(-c2ncccc2-c2cc(C(=O)O)c3[nH]ncc3c2)ccc1F` [compound 195, 5-(2-(4-Fluoro-3-methylphenyl)pyridin-3-yl)-1H-indazole-7-carboxylic acid], the IC50 worked out at 9.52 µM.

As to `COc1ccnc2ccc(-c3cccnc3-c3cccc(Cl)c3)cc12` [compound 841, 6-(2-(3-Chlorophenyl)pyridin-3-yl)-4-methoxyquinoline], the IC50 was found to be 7.64 µM. Take `Cc1cc(-c2ncc(-c3ccc(C(N)=O)cc3)cc2-c2ccc3ncsc3c2)ccc1F` [compound 318, 4-(5-(Benzo[d]thiazol-6-yl)-6-(4-fluoro-3-methylphenyl)pyridin-3-yl)benzamide]: the IC50 came out at 1.3 µM. As to `COc1ncnc2ccc(-c3cccnc3-c3ccc(F)c(Cl)c3)cc12` [compound 395, 6-(2-(3-Chloro-4-fluorophenyl)pyridin-3-yl)-4-methoxyquinazoline], the IC50 is 0.959 µM. Same read-out and setting: the value for `Cc1cc(-c2ncc(NCc3ccc(N4CCOCC4)cc3)cc2-c2ccc3ncsc3c2)ccc1F` [compound 353, 5-(Benzo[d]thiazol-6-yl)-6-(4-fluoro-3-methylphenyl)-N-(4-morpholinobenzyl)pyridin-3-amine] was 0.689 µM.
